Where two headings read alike, the source gives them in different places.
Assays:
[1] = biological target: Ba/F3-FGFR4-transfected cells (Homo sapiens, UniProt P22455); test: Ba/F3-FGFR4 cellular proliferation assay, Alamar Blue; format: cell-based
Description: Ba/F3-FGFR4 (Cellular Proliferation Assay)
(§1) In a 384 well plate, 100 nl of compound dilution in DMSO was sprayed before adding 50 μl cell culture medium (phenol red free RPMI-1640, 10% FBS, 2 mM L-Glutamine and 50 μg/ml Gentamycin) containing 20000 cells per well of Ba/F3-FGFR4-transfected cells. Cells were put in an incubator at 37° C. and 5% CO2. After 24 hours, 10 μl of Alamar Blue solution (0.5 mM K3Fe(CN)6, 0.5 mM KaFe(CN)6, 0.15 mM Resazurin and 100 mM Phosphate Buffer) was added to the wells, incubated for 4 hours at 37° C. and 5% CO2 before RFU's (Relative Fluorescence Units) (ex. 540 nm., em. 590 nm.) were measured in a flurorescence plate reader.

[2] = biological target: FGFR2 (h) (Homo sapiens, UniProt P21802); test: FGFR2 (enzymatic assay), TR-FRET; format: biochemical; conditions: read-out: FGFR 2 pIC50 (converted)
FGFR2 (h), sequence (P21802 22-821): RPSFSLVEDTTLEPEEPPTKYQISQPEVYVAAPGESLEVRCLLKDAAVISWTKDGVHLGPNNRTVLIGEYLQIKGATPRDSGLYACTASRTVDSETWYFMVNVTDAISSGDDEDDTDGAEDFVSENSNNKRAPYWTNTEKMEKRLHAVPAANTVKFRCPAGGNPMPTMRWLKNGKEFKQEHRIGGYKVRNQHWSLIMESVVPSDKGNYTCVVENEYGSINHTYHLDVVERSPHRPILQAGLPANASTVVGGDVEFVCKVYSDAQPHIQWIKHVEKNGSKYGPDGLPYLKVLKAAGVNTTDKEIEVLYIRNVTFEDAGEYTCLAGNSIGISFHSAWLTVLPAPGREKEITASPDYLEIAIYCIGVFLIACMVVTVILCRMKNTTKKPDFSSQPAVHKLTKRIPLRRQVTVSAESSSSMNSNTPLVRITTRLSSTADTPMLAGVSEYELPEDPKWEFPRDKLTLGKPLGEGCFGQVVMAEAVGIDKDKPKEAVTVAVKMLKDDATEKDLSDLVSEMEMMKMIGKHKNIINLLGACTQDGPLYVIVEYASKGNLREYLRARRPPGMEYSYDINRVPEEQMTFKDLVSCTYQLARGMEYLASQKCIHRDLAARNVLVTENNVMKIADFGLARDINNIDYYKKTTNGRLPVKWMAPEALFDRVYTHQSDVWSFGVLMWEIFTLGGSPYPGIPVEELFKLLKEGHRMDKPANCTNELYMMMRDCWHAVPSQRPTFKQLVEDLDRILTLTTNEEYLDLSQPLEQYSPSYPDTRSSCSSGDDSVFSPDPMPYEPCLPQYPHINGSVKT
Description: In a final reaction volume of 30 μL, FGFR2 (h) (150 ng/ml) was incubated with 50 mM HEPES pH 7.5, 6 mM MnCl2, 1 mM DTT, 0.1 mM Na3VO4, 0.01% Triton-X-100, 500 nM Btn-Flt3 and 0.4 μM ATP in the presence of compound (1% DMSO final). […] Time-Resolved Fluorescence Resonance Energy Transfer (TR-FRET) signal (ex340 nm. Em 620 nm, em 655 nm) was measured afterwards and results are expressed in (Relative Fluorescence Units).

[3] = biological target: FGFR3 (h) (Homo sapiens, UniProt P22607); test: FGFR3 (enzymatic assay), TR-FRET; format: biochemical; conditions: read-out: FGFR 3 pIC50 (converted)
FGFR3 (h), sequence (P22607 23-806): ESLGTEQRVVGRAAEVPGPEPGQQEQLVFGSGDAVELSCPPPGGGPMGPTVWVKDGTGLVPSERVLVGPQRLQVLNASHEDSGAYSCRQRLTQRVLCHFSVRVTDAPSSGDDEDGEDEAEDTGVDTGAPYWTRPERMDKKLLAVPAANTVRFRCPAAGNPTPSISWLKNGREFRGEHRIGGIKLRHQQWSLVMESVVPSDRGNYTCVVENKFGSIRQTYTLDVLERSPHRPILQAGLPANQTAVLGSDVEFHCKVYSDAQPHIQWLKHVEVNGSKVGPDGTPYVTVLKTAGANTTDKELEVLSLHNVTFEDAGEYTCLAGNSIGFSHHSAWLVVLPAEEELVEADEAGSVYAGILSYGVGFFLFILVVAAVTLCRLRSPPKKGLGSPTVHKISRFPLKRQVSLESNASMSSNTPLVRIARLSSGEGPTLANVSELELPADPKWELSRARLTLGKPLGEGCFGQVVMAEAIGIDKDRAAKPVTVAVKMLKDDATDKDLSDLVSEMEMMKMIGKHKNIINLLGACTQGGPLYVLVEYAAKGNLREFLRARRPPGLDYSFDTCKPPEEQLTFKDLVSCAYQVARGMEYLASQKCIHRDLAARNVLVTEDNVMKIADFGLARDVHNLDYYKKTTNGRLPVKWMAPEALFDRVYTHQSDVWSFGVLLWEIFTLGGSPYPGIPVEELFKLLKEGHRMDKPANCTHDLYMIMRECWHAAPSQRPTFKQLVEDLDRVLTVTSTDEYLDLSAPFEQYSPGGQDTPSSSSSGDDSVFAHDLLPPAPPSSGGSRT
Description: (§2) In a final reaction volume of 30 μL, FGFR3 (h) (40 ng/ml) was incubated with 50 mM HEPES pH 7.5, 6 mM MnCl2, 1 mM DTT, 0.1 mM Na3VO4, 0.01% Triton-X-100, 500 nM Btn-Flt3 and 25 μM ATP in the presence of compound (1% DMSO final). […] Time-Resolved Fluorescence Resonance Energy Transfer (TR-FRET) signal (ex340 nm. Em 620 nm, em 655 nm) was measured afterwards and results are expressed in RFU (Relative Fluorescence Units).

[4] = biological target: FGFR4 (h) (Homo sapiens, UniProt P22455); test: FGFR4 (enzymatic assay), TR-FRET; format: biochemical; conditions: read-out: FGFR 4 pIC50 (converted)
FGFR4 (h), sequence (P22455 22-802): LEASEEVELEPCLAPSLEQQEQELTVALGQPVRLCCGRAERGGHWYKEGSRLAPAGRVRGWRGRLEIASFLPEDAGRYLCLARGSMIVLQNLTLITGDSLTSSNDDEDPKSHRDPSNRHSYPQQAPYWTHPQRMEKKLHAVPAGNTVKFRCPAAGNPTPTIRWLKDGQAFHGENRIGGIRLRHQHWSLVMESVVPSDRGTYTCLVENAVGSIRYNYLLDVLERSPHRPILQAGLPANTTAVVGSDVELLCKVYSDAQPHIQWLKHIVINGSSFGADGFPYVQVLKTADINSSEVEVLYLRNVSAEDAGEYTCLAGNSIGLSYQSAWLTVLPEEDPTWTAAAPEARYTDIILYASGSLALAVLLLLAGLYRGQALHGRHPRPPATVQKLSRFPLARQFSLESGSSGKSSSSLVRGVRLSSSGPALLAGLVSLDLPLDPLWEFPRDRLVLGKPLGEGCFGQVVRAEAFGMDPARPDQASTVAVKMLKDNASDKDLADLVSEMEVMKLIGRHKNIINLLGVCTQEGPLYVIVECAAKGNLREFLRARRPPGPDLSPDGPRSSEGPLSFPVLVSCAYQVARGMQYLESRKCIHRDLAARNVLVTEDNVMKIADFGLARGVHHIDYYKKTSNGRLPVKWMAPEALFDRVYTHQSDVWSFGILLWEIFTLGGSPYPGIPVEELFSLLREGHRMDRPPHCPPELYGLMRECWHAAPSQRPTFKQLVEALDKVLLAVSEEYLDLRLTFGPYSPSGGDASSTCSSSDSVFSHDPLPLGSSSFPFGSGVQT
Description: as §2, with “FGFR4” for “FGFR3”, “(60” for “(40”, “5” for “25”

[5] = biological target: T1, Ba/F3-Flt3-transfected cells (Homo sapiens, UniProt P36888, cells depend on it, form not given); test: Ba/F3-Flt3 (minus IL3) cellular proliferation assay, Alamar Blue; format: cell-based
T1 sequence (P36888 1-993): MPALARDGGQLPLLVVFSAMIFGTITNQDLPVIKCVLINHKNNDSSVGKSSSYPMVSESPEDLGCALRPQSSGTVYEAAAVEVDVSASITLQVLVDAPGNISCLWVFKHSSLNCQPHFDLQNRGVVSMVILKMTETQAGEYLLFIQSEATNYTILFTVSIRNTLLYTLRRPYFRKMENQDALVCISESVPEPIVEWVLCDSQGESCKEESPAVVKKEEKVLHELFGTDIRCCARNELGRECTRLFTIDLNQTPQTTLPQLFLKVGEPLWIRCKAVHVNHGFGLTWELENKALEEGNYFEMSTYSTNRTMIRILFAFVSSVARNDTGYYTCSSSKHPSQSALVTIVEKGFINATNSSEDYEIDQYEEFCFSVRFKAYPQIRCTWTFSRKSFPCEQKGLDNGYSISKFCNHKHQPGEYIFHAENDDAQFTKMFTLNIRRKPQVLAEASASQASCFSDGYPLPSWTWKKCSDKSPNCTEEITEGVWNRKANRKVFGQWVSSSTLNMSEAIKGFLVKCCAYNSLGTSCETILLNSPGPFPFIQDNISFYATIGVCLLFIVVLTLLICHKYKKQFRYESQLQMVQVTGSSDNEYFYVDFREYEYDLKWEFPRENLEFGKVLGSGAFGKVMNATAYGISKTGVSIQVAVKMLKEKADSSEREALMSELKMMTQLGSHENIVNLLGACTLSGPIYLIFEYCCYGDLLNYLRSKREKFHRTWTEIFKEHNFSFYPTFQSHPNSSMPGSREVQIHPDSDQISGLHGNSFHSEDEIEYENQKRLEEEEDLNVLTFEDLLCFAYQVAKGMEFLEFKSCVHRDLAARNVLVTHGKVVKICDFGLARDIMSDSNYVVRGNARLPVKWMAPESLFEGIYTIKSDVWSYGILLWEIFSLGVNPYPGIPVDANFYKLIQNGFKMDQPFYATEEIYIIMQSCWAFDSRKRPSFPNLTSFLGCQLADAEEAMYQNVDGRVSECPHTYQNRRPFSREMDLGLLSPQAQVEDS
Description: Ba/F3-Flt3 (Minus IL3 or Plus IL3) (Cellular Proliferation Assay)
Cells were put in an incubator at 37° C. and 5% CO2. After 24 hours, 10 μl of Alamar Blue solution (0.5 mM K3Fe(CN)6, 0.5 mM KaFe(CN)6, 0.15 mM Resazurin and 100 mM Phosphate Buffer) was added to the wells, incubated for 4 hours at 37° C. and 5% CO2 before RFU's (Relative Fluorescence Units) (ex. 540 nm., em. 590 nm.) were measured in a flurorescence plate reader. […]
as §1, with “a 96” for “a 384”, “plate, 180” for “plate, 100 nl of compound dilution in DMSO was sprayed before adding 50”, “containing 10000” for “containing 20000”, “of Ba/F3-Flt3-transfected cells were pipette and 20 μl of compound dilution in DMSO was added.” for “of Ba/F3-FGFR4-transfected cells.”, “hours, 40” for “hours, 10”

Ba/F3-FGFR4-transfected cells, sequence (P22455 whole entry, change not shown): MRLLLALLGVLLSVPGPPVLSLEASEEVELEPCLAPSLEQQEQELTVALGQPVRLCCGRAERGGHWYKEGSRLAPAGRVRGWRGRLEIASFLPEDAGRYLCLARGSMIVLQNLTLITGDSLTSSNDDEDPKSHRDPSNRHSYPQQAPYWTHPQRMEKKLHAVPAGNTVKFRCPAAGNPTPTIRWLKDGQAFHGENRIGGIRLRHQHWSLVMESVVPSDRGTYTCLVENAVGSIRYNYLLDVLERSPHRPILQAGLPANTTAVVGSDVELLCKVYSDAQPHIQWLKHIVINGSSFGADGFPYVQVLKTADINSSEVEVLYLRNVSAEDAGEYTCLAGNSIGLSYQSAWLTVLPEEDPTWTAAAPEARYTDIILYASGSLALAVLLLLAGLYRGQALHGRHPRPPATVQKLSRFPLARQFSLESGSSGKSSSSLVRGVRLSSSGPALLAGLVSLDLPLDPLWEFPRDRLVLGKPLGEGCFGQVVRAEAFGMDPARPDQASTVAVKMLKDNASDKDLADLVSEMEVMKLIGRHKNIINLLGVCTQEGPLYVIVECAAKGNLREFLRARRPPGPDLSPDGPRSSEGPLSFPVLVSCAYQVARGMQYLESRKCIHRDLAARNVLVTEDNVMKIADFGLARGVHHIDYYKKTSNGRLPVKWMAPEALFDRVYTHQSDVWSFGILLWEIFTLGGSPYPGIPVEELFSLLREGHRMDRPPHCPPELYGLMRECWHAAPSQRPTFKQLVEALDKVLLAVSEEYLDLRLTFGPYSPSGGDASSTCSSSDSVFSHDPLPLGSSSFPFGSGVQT

SMILES	BAF3-FGFR4 pIC50 [1]	IC50 [2]	IC50 [3]	IC50 [4]	BAF3-FLT3 (MIN IL3) 384 well pIC50 ([5]; minus IL3)	BAF3-FGFR4 pIC50 ([1]; 384 well)	BAF3-FLT3 (MIN IL3) 96 well pIC50 ([5]; minus IL3, 96 well)	BAF3-FLT3 (MIN IL3) 384 well pIC50 ([5]; minus IL3, 384 well)	BAF3-FLT3 (MIN IL3) 96 well pIC50 ([5]; minus IL3)
COc1cc(OC)cc(N(CCO)c2ccc3ncc(-c4ccc(N5CCNCC5)nc4)nc3c2)c1 [Compound 165]	6.6	12.6 nM	4.9 nM	28.8 nM	5.38				
COc1cc(OC)cc(N(CC2CC2)c2ccc3ncc(N4CCOCC4)nc3c2)c1 [Compound 63]		741 nM	138 nM	2290 nM		<5	<5	<5	
COc1cc(OC)cc(N(CCN)c2ccc3ncc(-c4ccn(C)c4)nc3c2)c1 [Compound 79]	6.7	2.63 nM	1.86 nM	8.51 nM					
COc1cc(OC)cc(N(CC2CC2)c2ccc3ncc(-c4ccnc(N5CCOCC5)c4)nc3c2)c1 [Compound 90]		676 nM	282 nM	> 10000 nM			<5		
COc1cc(OC)cc(N(CCN2CCNCC2)c2ccc3ncc(-c4ccc(N)nc4)nc3c2)c1 [Compound 59]	6.1	4.07 nM	9.12 nM	64.6 nM	5.28				
COc1cc(OC)cc(N(CCNC(C)C)c2ccc3ncc(C(=O)N4CCN(C)CC4)nc3c2)c1 [Compound 179]	<5	427 nM	380 nM	> 1000 nM	<5				
COc1cc(OC)cc(N(CCO)c2ccc3ncc(-c4ccc(N5CCN(C(=O)OC(C)(C)C)CC5)cc4)nc3c2)c1 [Compound 156]	5.4	95.5 nM	24 nM	95.5 nM	<5				
COc1cc(OC)cc(N(CCNC(C)C)c2ccc3ncc(C(=O)NCCCN4CCCCC4)nc3c2)c1 [Compound 182]	5.7	26.3 nM	126 nM	603 nM	<5				
COc1cc(OC)cc(N(CCO)c2ccc3ncc(C4CCN(C(=O)OC(C)(C)C)CC4)nc3c2)c1 [Compound 185]	<5	214 nM	110 nM	> 1000 nM	<5				
COCC(O)CN(c1cc(OC)cc(OC)c1)c1ccc2ncc(-c3cccnc3)nc2c1 (single isomer, unassigned) [Compound 46]	5.8	12 nM	7.24 nM	47.9 nM	<5				
COc1cc(OC)cc(N(CC#Cc2ncccc2OC)c2ccc3ncc(-c4cccnc4)nc3c2)c1 [Compound 183]	~6.5	81.3 nM	162 nM	427 nM	5.04				
COc1cc(OC)cc(N(CCNC(C)C)c2ccc3ncc(C(=O)NCCCN4CCN(C)CC4)nc3c2)c1 [Compound 159]	~5.5	66.1 nM	155 nM	490 nM	<5				
COc1cc(OC)cc(N(CCO)c2ccc3ncc(C(=O)Nc4cnn(C)c4)nc3c2)c1 [Compound 184]	5.1	155 nM	110 nM	309 nM	<5				
COc1cc(OC)cc(N(CC2CC2)c2ccc3ncc(C(=O)Nc4cncn4C)nc3c2)c1 [Compound 27]	<5	~4170 nM	2630 nM	> 10000 nM	<5				<5
COc1cc(OC)cc(N(CCNC(C)C)c2ccc3ncc(-n4cnc(COC(C)=O)c4)nc3c2)c1 [Compound 167]	6.4	7.76 nM	11 nM	31.6 nM	<5				
COc1cc(OC)cc(N(CCCNCC(F)(F)F)c2ccc3ncc(-c4ccn(C)c4)nc3c2)c1 [Compound 5]	5.7	15.1 nM	9.55 nM		<5				
CNc1ccc(-c2cnc3ccc(N(CCCNCC(F)(F)F)c4cc(OC)cc(OC)c4)cc3n2)cn1 [Compound 129]	5.4	37.2 nM	52.5 nM	87.1 nM	<5				
COc1cc(OC)cc(N(CCNC(C)C)c2ccc3ncc(-c4ccn[nH]4)nc3c2)c1 [Compound 189]	6.23	2.29 nM	6.17 nM	7.24 nM					
COc1cc(OC)cc(N(CCCO)c2ccc3ncc(-c4ccnc(F)c4)nc3c2)c1 [Compound 142]	5.6	25.1 nM	7.41 nM	64.6 nM					
COc1cc(OC)cc(N(CCNC(C)C)c2ccc3ncc(-c4ccnn4C4CCCCO4)nc3c2)c1 (centres unmarked) [Compound 188]	6.05	7.41 nM	17.8 nM	70.8 nM					
COc1cc(OC)cc(N(CCCO)c2ccc3ncc(-c4ccnc(Cl)c4)nc3c2)c1 [Compound 136]	<5	25.7 nM	10.2 nM	97.7 nM					
COc1cc(OC)cc(N(CCCNCC(F)(F)F)c2ccc3ncc(-c4cnc(OC)nc4)nc3c2)c1 [Compound 26]	~5.1	138 nM	100 nM	479 nM					
